From US20030199098A1, “Advanced tool for the quantification uniformity within biological processes and conversions” (priority 2000, published 2003)

Experiments:
[1] = humans, routine clinical experiments
From the text: This tool is applicable no matter which technique or equipment is used to obtain the initial readings.

clinical = details: male, human, in vivo
From the text: FIG. 3 ethanol concurrency test (simultaneously performed on the same human subject during a single experimental session) in a graphical representation
The following TABLE 1 of results describes the FIG. 3 curves:
The INTOXIMETER EC/IR 3000, which was used for the data presented in the TABLE 1, was made by Intoximeter, Inc. of St. Louis, Mo. The transcutaneous ethanol sensors (TES #33, #39) were made by Giner Inc. of Waltham, Mass.

Index-K efficiency corridor for alcohol catabolism [1]: up to 3.4
half-life (clinical): 1.48 h
Compound: CCO [ethanol]
